Test results from US20110245095A1, “FAST ASSIGNMENT OF ADEQUATE CHEMOTHERAPY WITH LATINUM BASED DRUGS FOR CANCER PATIENTS BASED ON THE IDENTIFICATION OF CONSTITUTIONAL BRCAL MUTATIONS” (priority 2008, published 2011).

Key:
Format in all cases: in vivo, human
[1] = system: cancer of the gallbladder, BRCA1 mutation carriers; experiment: Cisplatin chemotherapy of BRCA1 mutation carriers with gallbladder cancer (Example 3, retrospective); conditions: 1 patient
Text: (§1) The database of the oncology department at the Pomeranian Academy of Medicine, Szczecin (Poland), was retrospectively screened for patients affected by cancer types different than the breast or ovary (histologically or cytologically proven) since those cancer types had already been analyzed in Examples 1 and 2. Those patients had to be carriers of at least one constitutional mutation of the gene BRCA1, among the dominating founder mutations in Poland (CMG, 4153delA and 5382insC). The presence of a mutation was determined by the same techniques described in Example 1.
(§2) The group that qualified matching all criteria consisted of five patients affected by cancer of the colon (1 subject), the pancreas (1 subject), the gallbladder (1 subject) and the lung (2 subjects). In 60% of the cases (both lung cancer patients and the colon cancer patient) a complete remission was reported after the application of the chemotherapy. […] In none of the cases, there was a lack of response towards cisplatin.

[2] = system: disseminated breast and ovarian cancer, BRCA1 mutation carriers; experiment: Cisplatin chemotherapy, disseminated breast and ovarian cancer analysed together (Example 2)
Text: The patients selected for this study were retrospectively screened from the database of the oncology department at the Pomeranian Academy of Medicine, Szczecin (Poland). […] All cases were documented for the presence of a BRCA1 constitutional mutation among the dominating founder mutations in Poland (C610, 4153delA and 5382insC) determined by the same techniques described in Example 1. The tumor size had to be measurable per RECIST: X-Ray or physical examination ≧20 mm, and/or spiral CT scan≧10 mm, and/or conventional CT scan≧20 mm. Only individuals were chosen with a life expectancy a priori of at least 3 months, to exclude a technical blur due to extreme disease progression in terminal cancer cases. The maximal ECOG performance status admitted was less than or equal to 2. The definition of minimum adequacy of organ function required prior to study entry were as follows: Absolute neutrophil count (ANC)>1,500/mcl, Platelets>100,000/mcl, Haemoglobin >8 g/dl, Total Bilirubin <1.5×ULN, AST (SGOT)/ALT (SGPT)<2.5×ULN and Creatinine within the normal institutional limits. All patients signed their willingness and ability to comply with scheduled visits, treatment plans, laboratory tests, and other study procedures. A total of 15 patients matched the selection criteria with ages at diagnosis ranging from 32 to 70 years and mean age at diagnosis of 48 years.
Ovarian cancer patients were selected following the same selection criteria. Four individuals matched the criteria with ages at diagnosis ranging from 42 to 45 years and mean age at diagnosis of 43.5 years.
The response assessment was based on a complete tumor measurement form (the form is carried forward continuously from cycle to cycle). Possible responses were complete response, partial response, stable disease and progressive disease, according to international oncology standards.

[3] = system: cancer of the lung, BRCA1 mutation carriers; experiment: Cisplatin chemotherapy of BRCA1 mutation carriers with lung cancer (Example 3, retrospective); conditions: 2 patients
Text: as §1, §2

[4] = system: cancer of colon, lung, pancreas, gallbladder, BRCA1 mutation carriers; experiment: Cisplatin chemotherapy of BRCA1 mutation carriers with cancer at sites other than breast and ovaries, total (Example 3); conditions: 5 patients
Text: as §1, §2

[5] = system: disseminated ovarian cancer, BRCA1 mutation carriers; experiment: Cisplatin chemotherapy of BRCA1 mutation carriers with disseminated ovarian cancer (Example 2, retrospective); conditions: 4 patients
Text: The patients selected for this study were retrospectively screened from the database of the oncology department at the Pomeranian Academy of Medicine, Szczecin (Poland). […] All cases were documented for the presence of a BRCA1 constitutional mutation among the dominating founder mutations in Poland (C610, 4153delA and 5382insC) determined by the same techniques described in Example 1. The tumor size had to be measurable per RECIST: X-Ray or physical examination ≧20 mm, and/or spiral CT scan≧10 mm, and/or conventional CT scan≧20 mm. Only individuals were chosen with a life expectancy a priori of at least 3 months, to exclude a technical blur due to extreme disease progression in terminal cancer cases. The maximal ECOG performance status admitted was less than or equal to 2. […]

[6] = system: cancer of the pancreas, BRCA1 mutation carriers; experiment: Cisplatin chemotherapy of BRCA1 mutation carriers with pancreatic cancer (Example 3, retrospective); conditions: 1 patient
Text: as §1, §2

[7] = system: invasive breast cancer, pathogenic BRCA1 mutation carriers; experiment: Neoadjuvant cisplatin therapy in breast cancer patients carrying a constitutional BRCA1 mutation (Example 1)
Procedure: Eight patients were treated in Szczecin (Poland) and two were treated in Bielsko-Biala (Poland). In these centers, genetic testing is offered to all women with incident breast cancer.
For the purpose of this study, genetic testing was expedited; in most cases the test result was available within five days of diagnosis. Written informed consent was obtained from each patient. The protocol was approved by the Research Ethics Review Board of the Pomeranian Medical Academy.
Patients with a previous diagnosis of breast cancer, or other cancer, were excluded (three patients). Patients who received prior chemotherapy were excluded (three patients). Patients with metastatic disease (stage 1V) at presentation were excluded (one patient). One patient presented with primary breast cancer after a previous prophylactic bilateral mastectomy and was excluded.
Patients were evaluated for renal function, liver function, and hematology prior to therapy.
Prior to platinum chemotherapy, the clinical and histological features of the breast cancers were assessed. Tumor size was evaluated by clinical examination and by ultrasound, in some cases supplemented by mammogram. Histology was evaluated in nine cases by core biopsy and in one case by fine needle aspiration. For the nine cases who underwent core biopsy, grade, ER, PR, and ERBB2 status were evaluated by immuno-histochemistry. […] Grade was evaluated in the core biopsy specimen using the Bloom-Richardson classification system,
Each cycle was 21 days. Granulocyte colony-stimulating factor (G-CSF) was not given to any patient. Dexamethasone (8 mg) was administered once daily for three days after chemotherapy, Ondansetron (Zophran™; GlaxoWellcome) was used for anti-nausea prophylaxis. Toxicity (nausea, vomiting, neutropenia) was assessed using the National Cancer Institute Common Toxicity Criteria after each cycle.
Surgery was followed by post-operative chemotherapy (four cycles of Adriamycin and Cyclophosphamide). Two patients received radiotherapy.
Clinical response was considered complete if there was no evidence of the primary breast tumor according to the World Health Organization (WHO) criteria (total disappearance of the tumor in breast and lymph nodes). Clinical response was considered ‘partial’ if there was a reduction of ≧50% in the product of the two largest perpendicular diameters of the tumor. […] The primary endpoint of this study was pathologic complete response. Pathologic response was considered complete if there was no evidence of invasive breast tumor and the lymph nodes were negative. Pathology specimens were reviewed by two pathologists. If there was evidence of breast carcinoma in situ, but no evidence of invasive disease, this was still considered to be a pathologic complete response.

[8] = system: cancer of the colon, BRCA1 mutation carriers; experiment: Cisplatin chemotherapy of BRCA1 mutation carriers with colon cancer (Example 3, retrospective); conditions: 1 patient
Text: as §1, §2

[9] = N = 10, after mastectomy and lymph node dissection
[10] = neoadjuvant cisplatin 75 mg/m^2 every three weeks, N = 10

N.N.[Cl][Pt][Cl] [cisplatin, cis-diamminedichloridoplatinum(II)]
No response, number of patients [1]: 0
Response: PR, number of patients [1]: 1
No response, % of patients ([2]; 19 patients): 21%
No response, number of patients ([2]; 19 patients): 4
Response: CR, % of patients ([2]; 19 patients): 53%
Response: CR, number of patients ([2]; 19 patients): 10
Response: PR, % of patients ([2]; 19 patients): 16%
Response: PR, number of patients ([2]; 19 patients): 3
Response: SD, % of patients ([2]; 19 patients): 10%
Response: SD, number of patients ([2]; 19 patients): 2
patients responsive to the therapy ([2]; 19 patients, CR + PR + SD): 79%
adverse effects: anemia, cases ([2]; Example 2 patients): 1 case
adverse effects: nausea, cases ([2]; Example 2 patients): 2 cases
adverse effects: neutropenia, cases ([2]; Example 2 patients): 6 cases
No response, number of patients [3]: 0
Response: CR, number of patients [3]: 2
Response: CR, % of patients [4]: 60%
Response: CR, number of patients [4]: 3
Response: PR, % of patients [4]: 20%
Response: PR, number of patients [4]: 1
Response: SD, % of patients [4]: 20%
Response: SD, number of patients [4]: 1
patients with at least a partial remission [4]: 80%
No response, number of patients [5]: 0
Response: PR (partial response), number of patients [5]: 0
No response, number of patients [6]: 0
Response: SD, number of patients [6]: 1
Clinical Response: No Change, % ([7]; N = 10): 0%
Clinical Response: No Change, No. ([7]; N = 10): 0
Clinical Response: Partial Response, % ([7]; N = 10): 10%
Clinical Response: Partial Response, No. ([7]; N = 10): 1
Clinical Response: Progressive Disease, % ([7]; N = 10): 0%
Clinical Response: Progressive Disease, No. ([7]; N = 10): 0
Number of Lymph Nodes Positive: 0, % ([7]; N = 10): 90%
Number of Lymph Nodes Positive: 0, No. ([7]; N = 10): 9
Number of Lymph Nodes Positive: 1-3, % ([7]; N = 10): 10%
Number of Lymph Nodes Positive: 1-3, No. ([7]; N = 10): 1
Number of Lymph Nodes Positive: 4-9, % ([7]; N = 10): 0%
Number of Lymph Nodes Positive: 4-9, No. ([7]; N = 10): 0
Number of Lymph Nodes Positive: >9, % ([7]; N = 10): 0%
Number of Lymph Nodes Positive: >9, No. ([7]; N = 10): 0
Pathologic Response: No Response, % ([7]; N = 10): 0%
Pathologic Response: No Response, No. ([7]; N = 10): 0
Pathologic Response: Partial Reseponse, % ([7]; N = 10): 10%
Pathologic Response: Partial Reseponse, No. ([7]; N = 10): 1
Residual Disease in Breast: 1-3 cm, % ([7]; N = 10): 0%
Residual Disease in Breast: 1-3 cm, No. ([7]; N = 10): 0
Residual Disease in Breast: 4-9 cm, % ([7]; N = 10): 0%
Residual Disease in Breast: 4-9 cm, No. ([7]; N = 10): 0
Residual Disease in Breast: <1 cm, % ([7]; N = 10): 0%
Residual Disease in Breast: <1 cm, No. ([7]; N = 10): 0
Residual Disease in Breast: >9 cm, % ([7]; N = 10): 0%
Residual Disease in Breast: >9 cm, No. ([7]; N = 10): 0
Residual Disease in Breast: none, % ([7]; N = 10): 100%
Residual Disease in Breast: none, No. ([7]; N = 10): 10
grade 3 or 4 anemia ([7]; N = 10): No grade 3 or 4 anemia was observed
patients with febrile neutropenia ([7]; N = 10): No patient
Pathologic Response: Complete Pathologic Response, % [7, 9]: 90%
Pathologic Response: Complete Pathologic Response, No. [7, 9]: 9
patients who stopped due to side effects (nausea and vomiting) ([7]; N = 10, stopped after two cycles): One patient
complete pathologic response, patients who completed treatment ([7]; four cycles of cisplatin, seven patients): all seven
Clinical Response: Complete Response, % [7, 10]: 90%
Clinical Response: Complete Response, No. [7, 10]: 9
pathologic complete response, patients who received two cycles ([7]; two cycles, three patients): two
No response, number of patients [8]: 0
Response: CR, number of patients [8]: 1
